Measured values: BindingDB's records for doi:10.7270/Q2NP22V6 (NMMLSC, 2007)

Molecular target: T1, N-formyl peptide receptor 2 (Homo sapiens, UniProt P25090)
T1 sequence (P25090 whole entry): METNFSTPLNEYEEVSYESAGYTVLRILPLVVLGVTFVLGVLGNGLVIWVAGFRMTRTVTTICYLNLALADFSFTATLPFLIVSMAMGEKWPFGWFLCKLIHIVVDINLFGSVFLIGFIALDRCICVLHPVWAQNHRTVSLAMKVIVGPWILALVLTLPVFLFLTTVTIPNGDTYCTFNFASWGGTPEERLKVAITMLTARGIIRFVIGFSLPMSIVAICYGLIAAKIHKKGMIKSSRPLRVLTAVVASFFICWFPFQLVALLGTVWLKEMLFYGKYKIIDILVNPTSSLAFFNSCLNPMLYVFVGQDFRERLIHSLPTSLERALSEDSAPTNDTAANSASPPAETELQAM
Experiment: FPRL1 fluorescent ligand binding inhibitors, dose response, cell-based, flow cytometry, Ki from IC50 (AID 766)

Compound	IC50 [µM]	IC50 (inactive by the depositor's call) [µM]
O=C(N1CCN(c2nc(-c3ccccc3)c3ccccc3n2)CC1)C(F)(F)F [2,2,2-trifluoro-1-[4-(4-phenyl-2-quinazolinyl)-1-piperazinyl]ethanone]	> 57.5	–
COc1ccc(-c2cc(C(F)(F)F)nc(N3CCN(C(c4ccccc4)c4ccccc4)CC3)n2)cc1OC [2-(4-benzhydrylpiperazin-1-yl)-4-(3,4-dimethoxyphenyl)-6-(trifluoromethyl)pyrimidine]	> 41.6	–
COc1ccc(-c2cn3cccnc3n2)cc1NC(=O)C1CCCC1 [MLS000045945]	> 66.1	–
COc1ccc(-c2cc(C(F)(F)F)nc(N3CCN(Cc4ccccc4)CC3)n2)cc1OC [2-(4-benzylpiperazin-1-yl)-4-(3,4-dimethoxyphenyl)-6-(trifluoromethyl)pyrimidine]	–	16.5
CCOC(=O)N1CCN(c2nc(-c3ccc(OC)c(OC)c3)cc(C(F)(F)F)n2)CC1 [4-[4-(3,4-dimethoxyphenyl)-6-(trifluoromethyl)-2-pyrimidinyl]-1-piperazinecarboxylic acid ethyl ester]	> 50.5	–
COc1ccc(-c2cc(C(F)(F)F)nc(N3CCN(c4ccccc4)CC3)n2)cc1OC [4-(3,4-dimethoxyphenyl)-2-(4-phenyl-1-piperazinyl)-6-(trifluoromethyl)pyrimidine]	> 50	–

Further lines, results first:

IC50 [µM]	IC50 (inactive by the depositor's call) [µM]	Compound
6.7	–	COc1ccc(-c2cn3cccnc3n2)cc1NC(=O)C1CC1 [MLS000045944]
10.7	–	CCC(=O)Nc1cc(-c2cn3cccnc3n2)ccc1OC [N-(5-imidazo[1,2-a]pyrimidin-2-yl-2-methoxy-phenyl)propanamide]
3.6	–	COc1ccc(-c2cn3cccnc3n2)cc1NC(=O)C(C)C [N-(5-imidazo[1,2-a]pyrimidin-2-yl-2-methoxy-phenyl)-2-methyl-propanamide]
9.9	–	COc1ccc(CC(=O)Nc2cc(-c3cn4cccnc4n3)ccc2OC)cc1 [N-(5-imidazo[1,2-a]pyrimidin-2-yl-2-methoxy-phenyl)-2-(4-methoxyphenyl)acetamide]
